Source: ChEMBL document CHEMBL1201862, “PubChem BioAssay data set” (2004)
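In this assay, cells in 96-well plates receive the compound at five concentrations for 48 hours. Endpoints are linearly interpolated between the surrounding concentrations. GI50 is the concentration that inhibits growth by half.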 Calls of active or inactive are those of the source. No stated cut-off is given here; in the data, active = GI50 up to about 1.1 µM and inactive = higher.

Legend:
Assay in all cases: NCI anticancer screen, dose series, 48 h
HT-29 = tested on: HT-29
SK-MEL-5 = tested on: SK-MEL-5
ACHN = tested on: ACHN
MCF7 = tested on: MCF7
HL-60 = tested on: HL-60
EKVX = tested on: EKVX
T47D = tested on: T47D
SNB-75 = tested on: SNB-75
A498 = tested on: A498
LOX IMVI = tested on: LOX IMVI
Hs-578T = tested on: Hs-578T
RXF 393 = tested on: RXF 393
Malme-3M = tested on: Malme-3M
UACC-257 = tested on: UACC-257
PC-3 = tested on: PC-3
K562 = tested on: K562
HOP-92 = tested on: HOP-92
CCRF-CEM = tested on: CCRF-CEM
M14 = tested on: M14
KM12 = tested on: KM12
786-0 = tested on: 786-0
BT-549 = tested on: BT-549
SNB-19 = tested on: SNB-19
MDA-N = tested on: MDA-N
NCI-H23 = tested on: NCI-H23
NCI-H226 = tested on: NCI-H226
MDA-MB-435 = tested on: MDA-MB-435
HCT-116 = tested on: HCT-116
SR = tested on: SR
SF-295 = tested on: SF-295
SW-620 = tested on: SW-620
HOP-62 = tested on: HOP-62
MOLT-4 = tested on: MOLT-4
OVCAR-8 = tested on: OVCAR-8
U-251 = tested on: U-251
MDA-MB-231 = tested on: MDA-MB-231
SF-268 = tested on: SF-268
SK-MEL-28 = tested on: SK-MEL-28
RPMI-8226 = tested on: RPMI-8226
OVCAR-5 = tested on: OVCAR-5
SN12C = tested on: SN12C
SK-OV-3 = tested on: SK-OV-3
SK-MEL-2 = tested on: SK-MEL-2
OVCAR-4 = tested on: OVCAR-4
HCT-15 = tested on: HCT-15
DU-145 = tested on: DU-145
UACC-62 = tested on: UACC-62
OVCAR-3 = tested on: OVCAR-3
NCI-H522 = tested on: NCI-H522
COLO 205 = tested on: COLO 205
A549 = tested on: A549
UO-31 = tested on: UO-31
CAKI-1 = tested on: CAKI-1
NCI-H460 = tested on: NCI-H460
TK-10 = tested on: TK-10
NCI/ADR-RES = tested on: NCI/ADR-RES
IGROV-1 = tested on: IGROV-1
HCC 2998 = tested on: HCC 2998

NNC1=NC(=O)NC(=O)C1
GI50 (HT-29): > 100 µM (inactive) | GI50 (SK-MEL-5): > 100 µM (inactive) | GI50 (ACHN): > 100 µM (inactive) | GI50 (MCF7): > 100 µM (inactive) | GI50 (HL-60): > 100 µM (inactive) | GI50 (EKVX): > 100 µM (inactive) | GI50 (T47D): > 100 µM (inactive) | GI50 (SNB-75): > 100 µM (inactive) | GI50 (A498): > 100 µM (inactive) | GI50 (LOX IMVI): > 100 µM (inactive) | GI50 (Hs-578T): > 100 µM (inactive) | GI50 (RXF 393): > 100 µM (inactive) | GI50 (Malme-3M): > 100 µM (inactive) | GI50 (UACC-257): > 100 µM (inactive) | GI50 (PC-3): > 100 µM (inactive) | GI50 (K562): > 100 µM (inactive) | GI50 (HOP-92): 66.4 µM (inactive) | GI50 (CCRF-CEM): 68.1 µM (inactive) | GI50 (M14): > 100 µM (inactive) | GI50 (KM12): > 100 µM (inactive) | GI50 (786-0): > 100 µM (inactive) | GI50 (BT-549): > 100 µM (inactive) | GI50 (SNB-19): > 100 µM (inactive) | GI50 (MDA-N): > 100 µM (inactive) | GI50 (NCI-H23): > 100 µM (inactive) | GI50 (NCI-H226): > 100 µM (inactive) | GI50 (MDA-MB-435): > 100 µM (inactive) | GI50 (HCT-116): > 100 µM (inactive) | GI50 (SR): > 100 µM (inactive) | GI50 (SF-295): > 100 µM (inactive) | GI50 (SW-620): > 100 µM (inactive) | GI50 (HOP-62): > 100 µM (inactive) | GI50 (MOLT-4): > 100 µM (inactive) | GI50 (OVCAR-8): > 100 µM (inactive) | GI50 (U-251): > 100 µM (inactive) | GI50 (MDA-MB-231): > 100 µM (inactive) | GI50 (SF-268): > 100 µM (inactive) | GI50 (SK-MEL-28): > 100 µM (inactive) | GI50 (RPMI-8226): > 100 µM (inactive) | GI50 (OVCAR-5): > 100 µM (inactive) | GI50 (SN12C): > 100 µM (inactive) | GI50 (SK-OV-3): > 100 µM (inactive) | GI50 (SK-MEL-2): > 100 µM (inactive) | GI50 (OVCAR-4): > 100 µM (inactive) | GI50 (HCT-15): > 100 µM | GI50 (DU-145): > 100 µM (inactive) | GI50 (UACC-62): > 100 µM (inactive) | GI50 (OVCAR-3): > 100 µM (inactive) | GI50 (NCI-H522): > 100 µM (inactive) | GI50 (COLO 205): > 100 µM (inactive) | GI50 (A549): > 100 µM (inactive) | GI50 (UO-31): > 100 µM (inactive) | GI50 (CAKI-1): > 100 µM (inactive) | GI50 (NCI-H460): > 100 µM (inactive) | GI50 (TK-10): > 100 µM (inactive) | GI50 (NCI/ADR-RES): > 100 µM (inactive) | GI50 (IGROV-1): > 100 µM (inactive)

CC(C)=CCC[C@@H](C)C1=C(Nc2ccccc2)C(=O)C(C)=C(O)C1=O
GI50 (HT-29): 4.16 µM (inactive) | GI50 (SK-MEL-5): 2 µM (inactive) | GI50 (ACHN): 2.56 µM (inactive) | GI50 (MCF7): 4.29 µM (inactive) | GI50 (HL-60): 0.303 µM (active) | GI50 (EKVX): 3.86 µM (inactive) | GI50 (T47D): 6.7 µM (inactive) | GI50 (SNB-75): 3.11 µM (inactive) | GI50 (A498): 3.34 µM (inactive) | GI50 (LOX IMVI): 3.92 µM (inactive) | GI50 (Hs-578T): 2.34 µM (inactive) | GI50 (HCC 2998): 5.92 µM (inactive) | GI50 (RXF 393): 3.78 µM (inactive) | GI50 (Malme-3M): 4.2 µM (inactive) | GI50 (UACC-257): 5.53 µM (inactive) | GI50 (PC-3): 3.63 µM (inactive) | GI50 (K562): 2.92 µM (inactive) | GI50 (HOP-92): 2.87 µM (inactive) | GI50 (CCRF-CEM): 0.239 µM (active) | GI50 (M14): 3.13 µM (inactive) | GI50 (KM12): 3.42 µM (inactive) | GI50 (786-0): 4.75 µM (inactive) | GI50 (BT-549): 3.67 µM (inactive) | GI50 (SNB-19): 3.77 µM (inactive) | GI50 (MDA-N): 4.54 µM (inactive) | GI50 (NCI-H23): 2.82 µM (inactive) | GI50 (NCI-H226): 3.13 µM (inactive) | GI50 (MDA-MB-435): 4.72 µM (inactive) | GI50 (HCT-116): 1.53 µM (inactive) | GI50 (SR): 0.631 µM (active) | GI50 (SF-295): 1.85 µM (inactive) | GI50 (SW-620): 3.78 µM (inactive) | GI50 (HOP-62): 1.81 µM (inactive) | GI50 (MOLT-4): 0.719 µM (active) | GI50 (OVCAR-8): 2.1 µM (inactive) | GI50 (U-251): 2.74 µM (inactive) | GI50 (MDA-MB-231): 2.89 µM (inactive) | GI50 (SF-268): 1.73 µM (inactive) | GI50 (SK-MEL-28): 8.02 µM (inactive) | GI50 (RPMI-8226): 9.66 µM (inactive) | GI50 (OVCAR-5): 8.95 µM (inactive) | GI50 (SN12C): 4.19 µM (inactive) | GI50 (SK-OV-3): 5.58 µM (inactive) | GI50 (SK-MEL-2): 2.52 µM (inactive) | GI50 (OVCAR-4): 6.62 µM (inactive) | GI50 (HCT-15): 0.875 µM | GI50 (DU-145): 4.59 µM (inactive) | GI50 (UACC-62): 4.03 µM (inactive) | GI50 (OVCAR-3): 2.21 µM (inactive) | GI50 (NCI-H522): 3.03 µM (inactive) | GI50 (COLO 205): 2.74 µM (inactive) | GI50 (A549): 2.56 µM (inactive) | GI50 (UO-31): 3.77 µM (inactive) | GI50 (CAKI-1): 2.82 µM (inactive) | GI50 (NCI-H460): 1.63 µM (inactive) | GI50 (TK-10): 4.29 µM (inactive) | GI50 (NCI/ADR-RES): 0.815 µM (active) | GI50 (IGROV-1): 3.01 µM (inactive)
